Test [1] deals with Proto-oncogene tyrosine-protein kinase Src (Homo sapiens, UniProt P12931). The test is described as follows: TR-FRET Assay: Compounds were screened in the TR-FRET assay for JAK2 and c-Src kinase inhibition. Ultra light poly GT (Perkin Elmer) was used as the substrate for JAK2 and c-Src with the ATP concentration of 10 μM and 50 μM, respectively. The Eu-labelled anti-phospho tyrosine antibody (Perkin Elmer) was added at 1 nM and the fluorescence emission at 615 nm and 665 nm was measured with an excitation wavelength of 340 nm. Background: TR-FRET usually uses a lanthanide donor and a delayed reading to cut background.

The target of test [2] is Tyrosine-protein kinase JAK2 (Homo sapiens, UniProt O60674). Nature of the test: TR-FRET Assay: Compounds were screened in the TR-FRET assay for JAK2 and c-Src kinase inhibition. Ultra light poly GT (Perkin Elmer) was used as the substrate for JAK2 and c-Src with the ATP concentration of 10 μM and 50 μM, respectively.
Tyrosine-protein kinase JAK2, sequence (O60674 whole entry): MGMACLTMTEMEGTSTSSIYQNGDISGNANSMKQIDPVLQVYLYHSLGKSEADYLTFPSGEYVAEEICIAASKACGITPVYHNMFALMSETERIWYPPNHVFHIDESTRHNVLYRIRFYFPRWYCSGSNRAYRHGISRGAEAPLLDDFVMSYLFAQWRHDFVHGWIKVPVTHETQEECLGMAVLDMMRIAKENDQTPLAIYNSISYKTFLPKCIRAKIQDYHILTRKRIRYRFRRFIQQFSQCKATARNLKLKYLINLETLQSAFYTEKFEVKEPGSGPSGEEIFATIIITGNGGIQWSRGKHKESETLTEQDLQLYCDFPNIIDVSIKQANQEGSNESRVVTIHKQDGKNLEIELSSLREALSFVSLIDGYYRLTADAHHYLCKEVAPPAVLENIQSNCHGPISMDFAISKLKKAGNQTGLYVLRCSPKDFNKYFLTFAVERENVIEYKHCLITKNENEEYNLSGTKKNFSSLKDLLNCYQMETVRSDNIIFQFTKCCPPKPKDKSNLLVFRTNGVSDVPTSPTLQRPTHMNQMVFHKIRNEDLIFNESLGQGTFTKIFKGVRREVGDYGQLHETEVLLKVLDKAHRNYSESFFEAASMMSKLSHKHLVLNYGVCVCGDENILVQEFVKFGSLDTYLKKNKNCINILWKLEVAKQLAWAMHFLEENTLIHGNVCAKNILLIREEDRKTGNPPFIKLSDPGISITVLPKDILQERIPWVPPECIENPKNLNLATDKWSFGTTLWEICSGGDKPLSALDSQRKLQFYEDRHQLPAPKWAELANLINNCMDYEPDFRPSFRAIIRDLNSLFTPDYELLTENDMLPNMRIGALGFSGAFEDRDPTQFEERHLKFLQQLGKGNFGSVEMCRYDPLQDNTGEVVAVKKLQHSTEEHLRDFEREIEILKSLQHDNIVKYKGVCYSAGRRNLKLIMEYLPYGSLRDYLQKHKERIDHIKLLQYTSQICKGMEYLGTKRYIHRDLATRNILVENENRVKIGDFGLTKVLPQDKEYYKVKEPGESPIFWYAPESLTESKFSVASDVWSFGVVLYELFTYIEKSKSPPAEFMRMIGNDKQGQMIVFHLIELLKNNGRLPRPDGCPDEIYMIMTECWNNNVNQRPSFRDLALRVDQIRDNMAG

Proto-oncogene tyrosine-protein kinase Src, sequence (P12931 2-536 limits assumed): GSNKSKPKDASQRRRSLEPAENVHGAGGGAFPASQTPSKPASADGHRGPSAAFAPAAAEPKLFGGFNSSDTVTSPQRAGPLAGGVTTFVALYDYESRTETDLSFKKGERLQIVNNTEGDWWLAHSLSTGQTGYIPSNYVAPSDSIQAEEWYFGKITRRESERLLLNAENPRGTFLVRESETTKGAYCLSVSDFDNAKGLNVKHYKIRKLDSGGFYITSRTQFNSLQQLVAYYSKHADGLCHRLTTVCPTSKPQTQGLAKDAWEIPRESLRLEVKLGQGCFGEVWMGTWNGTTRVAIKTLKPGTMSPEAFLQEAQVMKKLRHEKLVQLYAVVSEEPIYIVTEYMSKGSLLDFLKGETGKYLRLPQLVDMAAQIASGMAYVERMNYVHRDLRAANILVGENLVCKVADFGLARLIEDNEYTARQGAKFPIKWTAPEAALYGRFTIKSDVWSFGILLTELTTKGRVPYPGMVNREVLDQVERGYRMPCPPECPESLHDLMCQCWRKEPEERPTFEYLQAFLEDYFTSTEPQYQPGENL

Consider `Cc1ccc(NC(=O)c2cccc(C(F)(F)F)c2)cc1N1CCc2nc(Nc3ccc(C(=O)NC4CCN(C)CC4)cc3)ncc2C1`, for which the IC50 is 2 nM in test [1] and 7 nM in test [2].

As for `Cc1ccc(NC(=O)c2cccc(C(C)(C)C)c2)cc1N1CCc2nc(Nc3ccc(N4CCN(C)CC4)cc3)ncc2C1=O`, the values for the IC50 in test [1] and in test [2] were 28 nM and 45 nM, respectively.

`CN1CCN(c2ccc(Nc3ncc4c(n3)CCN(c3cc(NC(=O)c5cccc(C(F)(F)F)c5)ccc3Cl)C4)cc2)CC1` came in with an IC50 in test [2] of 8.8 nM.

Take `CN1CCN(c2ccc(Nc3ncc4c(n3)CCN(c3cc(NC(=O)c5cc(F)cc(C(F)(F)F)c5)ccc3Cl)C4=O)cc2)CC1`: the IC50 in test [2] amounted to 9 nM.

As a reminder, the IC50 is the concentration needed to halve the response being measured. A low value points to inhibition by little substance.
